How the values were obtained:
caspase 9 = target: T1, caspase 9 (Homo sapiens, UniProt P55211); assay: Specificity: effect on mechanistically related enzyme; format: biochemical; details: at 30 μM (data not shown)
T1 sequence (P55211 1-416): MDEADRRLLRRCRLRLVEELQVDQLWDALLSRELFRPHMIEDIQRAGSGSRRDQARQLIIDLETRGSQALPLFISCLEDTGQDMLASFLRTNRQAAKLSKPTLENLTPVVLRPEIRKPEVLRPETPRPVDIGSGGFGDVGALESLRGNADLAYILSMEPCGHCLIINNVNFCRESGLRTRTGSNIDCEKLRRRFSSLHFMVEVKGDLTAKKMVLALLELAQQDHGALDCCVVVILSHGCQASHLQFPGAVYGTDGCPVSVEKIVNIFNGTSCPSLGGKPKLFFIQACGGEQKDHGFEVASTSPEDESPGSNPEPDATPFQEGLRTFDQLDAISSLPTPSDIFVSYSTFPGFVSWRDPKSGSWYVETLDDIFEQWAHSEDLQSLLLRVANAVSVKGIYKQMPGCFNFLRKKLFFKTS
Description: (§1) Specificity for glutaminase was evaluated at two levels. Compounds were evaluated for specific interactions with several thiol hydrolases (cathepsin B, caspase-9, calpain-1, and […]). These are cysteine proteases which are believed to function by a mechanisms similar to that of glutaminase. Compounds were also evaluated for effects on intracellular amino acids and nucleotides in CACO2 (intestinal epithelial) cells (Example 5), and for effects on amino acids in primary cultures of cerebellar neurons (granule cells) and astrocytes (Examples 6-7). These measurements reflect interactions with other glutamine utilizing enzymes involved in amino acid and nucleic acid biosynthesis and homeostasis. For example, a decrease in cytidine triphosphate (CTP) and an increase in uridine triphosphate (UTP) on treatment with DON (6-diazo-5-oxo-L-norleucine), a known nonselective antiglutamine affinity label, is indicative of inhibition of the activity of CTP synthetase, for which UTP is the substrate and CTP the product.

calpain 1 = target: T2, calpain 1 (Homo sapiens, UniProt P07384); assay: as above; format: biochemical; details: at 30 μM (data not shown)
T2 sequence (P07384 1-714): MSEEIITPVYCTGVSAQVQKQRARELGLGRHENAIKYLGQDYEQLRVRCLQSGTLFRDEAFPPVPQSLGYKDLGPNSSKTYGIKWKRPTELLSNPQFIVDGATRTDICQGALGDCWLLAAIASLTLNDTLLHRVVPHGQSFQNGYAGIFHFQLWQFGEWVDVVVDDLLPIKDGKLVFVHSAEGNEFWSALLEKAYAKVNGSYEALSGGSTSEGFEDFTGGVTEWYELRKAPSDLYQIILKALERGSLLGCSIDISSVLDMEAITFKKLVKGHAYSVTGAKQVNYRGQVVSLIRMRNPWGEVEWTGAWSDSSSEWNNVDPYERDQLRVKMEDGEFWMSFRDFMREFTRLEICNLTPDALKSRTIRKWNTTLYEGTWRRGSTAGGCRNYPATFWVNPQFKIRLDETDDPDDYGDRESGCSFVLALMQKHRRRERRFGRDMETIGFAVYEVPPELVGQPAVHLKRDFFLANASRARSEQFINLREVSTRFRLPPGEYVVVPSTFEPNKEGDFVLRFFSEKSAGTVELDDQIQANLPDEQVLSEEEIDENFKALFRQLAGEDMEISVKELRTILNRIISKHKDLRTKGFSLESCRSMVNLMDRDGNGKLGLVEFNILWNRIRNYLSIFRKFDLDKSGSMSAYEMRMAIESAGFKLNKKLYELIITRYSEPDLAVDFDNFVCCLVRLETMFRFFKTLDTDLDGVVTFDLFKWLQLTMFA
T2 sequence (P04632 1-268 partner): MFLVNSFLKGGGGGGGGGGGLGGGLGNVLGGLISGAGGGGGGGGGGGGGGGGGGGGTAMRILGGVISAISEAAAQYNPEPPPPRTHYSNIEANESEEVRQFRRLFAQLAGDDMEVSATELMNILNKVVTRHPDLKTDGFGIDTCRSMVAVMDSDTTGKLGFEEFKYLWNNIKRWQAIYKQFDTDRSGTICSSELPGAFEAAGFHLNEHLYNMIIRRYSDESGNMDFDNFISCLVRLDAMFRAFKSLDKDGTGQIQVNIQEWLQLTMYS
Description: as §1

cathespin B = cathespin B (Homo sapiens, UniProt P07858); assay: as above; format: biochemical; details: at 30 μM (data not shown)
Description: as §1

[1] = tested on: intestinal epithelial (CACO2) cells; assay: Intracellular amino acids in intestinal epithelial cells; format: cell-based
Description: When the cells reached about 80% confluency, fresh glutamine was added to 2 mM. […] After 6.5 h of incubation, cultures were washed twice with phosphate buffered saline and extracted with 100 μL 1M perchloric acid. Extracts were neutralized with 30 μL of 5M potassium carbonate, centrifuged, and analyzed by HPLC for nucleotides, as described in Di Pierro et al. 1995, and for amino acids, as described in Lo et al. 1998. Results are shown in FIG. 5A (amino acids) and FIG. 5B (nucleotides).

[2] = CACO2, 10 nM to 10 μM, 6.5 h, FIG. 5A

## O=C(Cc1ccccc1)Nc1nnc(CCSCCc2nnc(NC(=O)Cc3ccccc3)s2)s1 [SNX-1770, bis-2′-[5-(phenylacetamido)-1,3,4-thiadiazol-2-yl]ethyl sulfide]
Caspase 9
  Effect on caspase 9: Nor did it have any effect
Calpain 1
  Effect on calpain 1: Nor did it have any effect
Cathespin B
  Effect on cathespin B: Nor did it have any effect
[1]; [2]
  Effect on glutamate in cell extracts: dose dependent decrease
  Effect on glycine or taurine in cell extracts: no effect
[1]; CACO2 cells, partial and specific
  Lowering of cellular glutamate: ~30%
[1]; at 10 μM, intestinal epithelial cells
  Effect on intracellular (non-glutamate) amino acids, including serine, glycine, arginine, alanine, taurine: no effect
